Source: paper PMC12302228 (RSC Medicinal Chemistry, 2025)
In brackets after ≈: the same amount, converted by molar mass. Like-named read-outs stand apart in the source and are kept apart here.

How the values were obtained:
M21 = experiment: Antiproliferative activity, SRB assay; assay type: cell-based, human; conditions: mean ± SEM
HL-60 = experiment: Antiproliferative activity, MTT assay; assay type: cell-based, human; conditions: mean ± SEM
THP-1 = experiment: Antiproliferative activity, MTT assay; assay type: cell-based, human; conditions: mean ± SEM
physchem = conditions: ultrapure water, 37 °C, kinetic from dmso stock
MCF7 = experiment: Antiproliferative activity, SRB assay; assay type: cell-based, human; conditions: mean ± SEM
HT-29 = experiment: Antiproliferative activity, SRB assay; assay type: cell-based, human; conditions: mean ± SEM
MOLM-13 = experiment: Antiproliferative activity, MTT assay; assay type: cell-based, human; conditions: read-out: IC50 MOLM-13; 48 h of treatment; mean ± SEM
HT-1080 = experiment: Antiproliferative activity, SRB assay; assay type: cell-based, human; conditions: read-out: IC50 HT-1080; 48 h of treatment; mean ± SEM
[1] = read-out: IC50 M21, 48 h of treatment
[2] = read-out: IC50 HL-60, 48 h of treatment
[3] = Homo sapiens, THP-1, 48 h, read-out: IC50 THP-1, 48 h of treatment
[4] = read-out: IC50 MCF7, 48 h of treatment
[5] = read-out: IC50 HT-29, 48 h of treatment
[6] = Homo sapiens, M21, 48 h, read-out: IC50 M21, 48 h of treatment
[7] = Homo sapiens, MCF7, 48 h, read-out: IC50 MCF7, 48 h of treatment
[8] = Homo sapiens, HT-29, 48 h, read-out: IC50 HT-29, 48 h of treatment
[9] = Homo sapiens, HL-60, 48 h, read-out: IC50 HL-60, 48 h of treatment
[10] = read-out: IC50 THP-1, 48 h of treatment

Row | SMILES | IC50 (M21; [1]) [µM] | IC50 (HL-60; [2]) [µM] | IC50 (THP-1; [3]) [µM] | solubility at 24 h (physchem) [mg/mL] | IC50 (MCF7; [4]) [µM] | IC50 (HT-29; [5]) [µM] | IC50 (MOLM-13) [µM] | IC50 (M21; [6]) [µM] | IC50 (MCF7; [7]) [µM] | IC50 (HT-29; [8]) [µM] | IC50 (HL-60; [9]) [µM] | IC50 (HT-1080) [µM] | IC50 (THP-1; [10]) [µM]
1 | CCCNC(=O)Nc1ccc(S(=O)(=O)Oc2cnccc2I)cc1 [Compound 16, 4-Iodopyridin-3-yl 4-(3-propylureido)benzenesulfonate] | 9.7 ± 0.9 | 18 ± 4 | 1.5 ± 0.4 | 0.053 ± 0.006 (≈ 115 µM) | 5 ± 1 | 6.9 ± 0.5 | 1.3 ± 0.3 | – | – | – | – | – | –
2 | CCCNC(=O)Nc1ccc(S(=O)(=O)Oc2cccnc2C(C)C)cc1 [Compound 7, 2-Isopropylpyridin-3-yl 4-(3-propylureido)benzenesulfonate] | – | 24 ± 4 | 2.6 ± 0.6 | 0.007 ± 0.001 (≈ 18.5 µM) | – | – | – | 22 ± 2 | 17 ± 1 | 14 ± 1 | – | – | –
3 | CC(C)c1ncccc1OS(=O)(=O)c1ccc(NC(=O)NCCCl)cc1 [Compound 11, 2-Isopropylpyridin-3-yl 4-(3-(2-chloroethyl)ureido)benzenesulfonate] | 20 ± 1 | 27 ± 6 | 2.3 ± 0.9 | 0.041 ± 0.003 (≈ 103 µM) | – | – | – | – | 17 ± 1 | 14 ± 1 | – | – | –
4 | CCCNC(=O)Nc1ccc(S(=O)(=O)Oc2cnccc2Br)cc1 [Compound 15, 4-Bromopyridin-3-yl 4-(3-propylureido)benzenesulfonate] | – | – | 6 ± 1 | 0.035 ± 0.003 (≈ 84.5 µM) | – | – | – | 28 ± 2 | 12 ± 1 | 19 ± 1 | 21 ± 5 | 4.1 ± 0.3 | –
5 | CCCNC(=O)Nc1ccc(S(=O)(=O)Oc2cnccc2C)cc1 [Compound 17, 4-Methylpyridin-3-yl 4-(3-propylureido)benzenesulfonate] | 24 ± 1 | 43 ± 7 | 7.3 ± 0.8 | 0.052 ± 0.002 (≈ 149 µM) | 12 ± 1 | 12 ± 1 | 4 ± 0.6 | – | – | – | – | 7.5 ± 0.5 | –
6 | CCCNC(=O)Nc1ccc(S(=O)(=O)Oc2cccnc2C)cc1.Cl [Compound 26, 2-Methylpyridin-3-yl 4-(3-propylureido)benzenesulfonate hydrochloride] | > 100 | 15 ± 3 | – | 0.151 ± 0.001 | 33 ± 4 | > 100 | 14 ± 2 | – | – | – | – | 15 ± 2 | 6 ± 2
7 | O=C(NCCCl)Nc1ccc(S(=O)(=O)Oc2cnccc2I)cc1 [Compound 18, 4-Iodopyridin-3-yl 4-(3-(2-chloroethyl)ureido)benzenesulfonate] | – | – | 1.2 ± 0.3 | 0.024 ± 0.002 (≈ 49.8 µM) | – | – | – | 2.8 ± 0.3 | 2.8 ± 0.4 | 2.7 ± 0.2 | 3 ± 1 | – | –
8 | CCCNC(=O)Nc1ccc(S(=O)(=O)Oc2cccnc2Br)cc1.Cl [Compound 23, 2-Bromopyridin-3-yl 4-(3-propylureido)benzenesulfonate hydrochloride] | – | – | 10 ± 0.3 | 0.079 ± 0.009 | – | 42 ± 2 | – | 45 ± 2 | 22 ± 2 | – | 37 ± 7 | – | –
9 | CCNC(=O)Nc1ccc(S(=O)(=O)Oc2cnccc2C)cc1 [Compound 14, 4-Methylpyridin-3-yl 4-(3-ethylureido)benzenesulfonate] | – | – | – | 0.049 ± 0.004 (≈ 146 µM) | – | – | – | 31 ± 3 | 31 ± 3 | 16 ± 1 | > 100 | – | 6 ± 2
10 | CCNC(=O)Nc1ccc(S(=O)(=O)Oc2cccnc2C)cc1.Cl [Compound 22, 2-Methylpyridin-3-yl 4-(3-ethylureido)benzenesulfonate hydrochloride] | – | – | 5 ± 2 | 0.152 ± 0.004 | 51 ± 5 | – | – | > 100 | – | > 100 | 60 ± 20 | 26 ± 2 | –
11 | O=C(NCCCl)Nc1ccc(S(=O)(=O)Oc2cccnc2I)cc1 [Compound 10, 2-Iodopyridin-3-yl 4-(3-(2-chloroethyl)ureido)benzenesulfonate] | – | 6.9 ± 0.3 | 1 ± 0.1 | 0.0044 ± 0.0001 (≈ 9.13 µM) | 5 ± 1 | 9 ± 1 | – | 9 ± 1 | – | – | – | – | –
12 | CCNC(=O)Nc1ccc(S(=O)(=O)Oc2cnccc2Br)cc1 [Compound 12, 4-Bromopyridin-3-yl 4-(3-ethylureido)benzenesulfonate] | 21 ± 1 | – | 4 ± 0.6 | 0.064 ± 0.001 (≈ 160 µM) | – | – | – | – | 32 ± 4 | 25 ± 1 | > 50 | – | –
13 | CCNC(=O)Nc1ccc(S(=O)(=O)Oc2cccnc2Br)cc1.Cl [Compound 19, 2-Bromopyridin-3-yl 4-(3-ethylureido)benzenesulfonate hydrochloride] | 27 ± 2 | > 100 | 7 ± 3 | 0.173 ± 0.002 | – | 26 ± 2 | – | – | 28 ± 2 | – | – | – | –
